In brackets after ≈: the same amount, converted by molar mass. Where a name gives a salt, the structure may show the parent alone. Read-outs that look alike come from different tables or passages of the source.
Experiments:
Type in all cases: cell-based
[1] = system: Klebsiella pneumoniae PCI-602; assay: MIC, Experiment 1; conditions: PCI602, K. pneumoniae PCI-602, Gram -, read-out: Min. inhib. concentr. (MIC)
In short: (§1)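 Standard solutions of 1000 μg/ml were prepared for each compound. Inhibition was then scored under Japan Society of Chemotherapy conditions. S. pneumoniae used brain heart infusion preculture and horse-blood (5%) heart infusion agar. The remaining species used sensitivity test broth and agar.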

[2] = system: Staphylococcus aureus ATCC 9144; assay: MIC, Experiment 1; conditions: ATCC9144, S. aureus ATCC 9144, Gram +, read-out: Min. inhib. concentr. (MIC)
In short: (§2)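 MIC was determined by the Japan Society of Chemotherapy agar dilution method, working from 1000 μg/ml standard solutions (DMSO or water stocks). S. pneumoniae was precultured in brain heart infusion broth and tested on heart infusion agar with 5% defibrinated horse blood. Other strains used sensitivity test broth and sensitivity test agar.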

Bacillus cereus IAM 1029 = assay: MIC, Experiment 1; conditions: IAM1029, B. cereus IAM 1029, Gram +, read-out: Min. inhib. concentr. (MIC)
In short: as §2

[3] = system: Staphylococcus aureus FDA 243; assay: MIC, Experiment 1; conditions: FDA243, S. aureus FDA 243, Gram +, read-out: Min. inhib. concentr. (MIC)
In short: as §2

[4] = system: Escherichia coli NIHJ JC-2; assay: MIC, Experiment 1; conditions: NIHJJC2, E. coli NIHJ JC-2, Gram -, read-out: Min. inhib. concentr. (MIC)
In short: as §1

[5] = system: Streptococcus pyogenes Su; assay: MIC, Experiment 1; conditions: S. pyogenes Su, Gram +, agar with 5% defibrinated horse blood, read-out: Min. inhib. concentr. (MIC)
In short: (§3)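 Stocks: 5000 μg/ml in DMSO or sterile distilled water; standard: 1000 μg/ml after water dilution. Method: Japan Society of Chemotherapy.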

[6] = system: Streptococcus pyogenes Sv; assay: MIC, Experiment 1; conditions: S. pyogenes Sv, Gram +, agar with 5% defibrinated horse blood, read-out: Min. inhib. concentr. (MIC)
In short: as §3

Enterobacter cloacae 963 = assay: MIC, Experiment 1; conditions: E. cloacae 963, Gram -, read-out: Min. inhib. concentr. (MIC)
In short: as §1

[7] = system: Streptococcus pyogenes Cook; assay: MIC, Experiment 1; conditions: S. pyogenes Cook, Gram +, agar with 5% defibrinated horse blood, read-out: Min. inhib. concentr. (MIC)
In short: as §3

[8] = system: Streptococcus pneumoniae IID 552; assay: MIC, Experiment 1; conditions: IID552, S. pneumoniae IID 552, Gram +, agar with 5% defibrinated horse blood, read-out: Min. inhib. concentr. (MIC)
In short: as §2

[9] = system: Staphylococcus aureus MS-353; assay: MIC, Experiment 1; conditions: MS353, S. aureus MS-353, Gram +, read-out: Min. inhib. concentr. (MIC)
In short: as §2

[10] = system: Micrococcus luteus ATCC 9341; assay: MIC, Experiment 1; conditions: ATCC9341, M. luteus ATCC 9341, Gram +, read-out: Min. inhib. concentr. (MIC)
In short: as §1

[11] = system: Streptococcus pneumoniae IID 554; assay: MIC, Experiment 1; conditions: IID554, S. pneumoniae IID 554, Gram +, agar with 5% defibrinated horse blood, read-out: Min. inhib. concentr. (MIC)
In short: as §2

[12] = system: Bacillus subtilis ATCC 6633; assay: MIC, Experiment 1; conditions: ATCC6633, B. subtilis ATCC 6633, Gram +, read-out: Min. inhib. concentr. (MIC)
In short: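 Japan Society of Chemotherapy MIC protocol. Pneumococci: BHI broth preculture, heart infusion agar plus 5% defibrinated horse blood. Staphylococcus/Bacillus: sensitivity test broth preculture, sensitivity test agar.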

[13] = system: Acinetobacter calcoaceticus Ac 54; assay: MIC, Experiment 1; conditions: AC54, A. calcoaceticus Ac 54, Gram -, read-out: Min. inhib. concentr. (MIC)
In short: as §1

[14] = system: Staphylococcus aureus Terajima (IID 670); assay: MIC, Experiment 1; conditions: IID670, S. aureus Terajima (IID 670), Gram +, read-out: Min. inhib. concentr. (MIC)
In short: as §2

[15] = system: Staphylococcus aureus Cowan I (IID 975); assay: MIC, Experiment 1; conditions: IID975, S. aureus Cowan I (IID 975), Gram +, read-out: Min. inhib. concentr. (MIC)
In short: as §2

[16] = system: Pseudomonas aeruginosa NCTC 10490; assay: MIC, Experiment 1; conditions: NCTC10490, P. aeruginosa NCTC 10490, Gram -, read-out: Min. inhib. concentr. (MIC)
In short: as §1

[17] = system: Staphylococcus aureus FDA 209P JC-1; assay: MIC, Experiment 1; conditions: FDA209P, S. aureus FDA 209P JC-1, Gram +, read-out: Min. inhib. concentr. (MIC)
In short: as §2

[18] = system: Proteus mirabilis IFO 3849; assay: MIC, Experiment 1; conditions: IFO3849, P. mirabilis IFO 3849, Gram -, read-out: Min. inhib. concentr. (MIC)
In short: as §1

[19] = system: Staphylococcus aureus IID 803; assay: MIC, Experiment 1; conditions: IID803, S. aureus IID 803, Gram +, read-out: Min. inhib. concentr. (MIC)
In short: as §2

[20] = system: clinically isolated Enterococcus faecalis; assay: In vitro antibacterial activity against clinical isolates, Experiment 2
In short: (§4)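 Each compound was brought to a 1000 μg/ml stock with sterilized distilled water, and MICs were measured on sensitivity test agar.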

[21] = system: clinically isolated Enterococcus faecium; assay: as above; conditions: for MIC / MIC90: 25 clinical strains E. faecium; for MIC90: 90% of strains, read-out: MIC90
In short: as §4

[22] = 25 clinical strains E. faecalis
[23] = 25 clinical strains E. faecalis, 50% of strains, read-out: MIC50
[24] = 25 clinical strains E. faecalis, 90% of strains, read-out: MIC90

Row | SMILES | MIC [1] [µg/mL] | MIC [2] [µg/mL] | MIC (Bacillus cereus IAM 1029) [µg/mL] | MIC [3] [µg/mL] | MIC [4] [µg/mL] | MIC [5] [µg/mL] | MIC [6] [µg/mL] | MIC (Enterobacter cloacae 963) [µg/mL] | MIC [7] [µg/mL] | MIC [8] [µg/mL] | MIC [9] [µg/mL] | MIC [10] [µg/mL] | MIC [11] [µg/mL] | MIC [12] [µg/mL] | MIC [13] [µg/mL] | MIC [14] [µg/mL] | MIC [15] [µg/mL] | MIC [16] [µg/mL] | MIC [17] [µg/mL] | MIC [18] [µg/mL] | also measured
1 | CN1Cc2csc3c(C(=O)O)c(=O)c4cc(F)c(N5CCN(C)C(CF)C5)c1c4n23 (stereo not drawn) [Compound (K), 9,1-(methylimino)methano-7-fluoro-8-(3-fluoromethyl-4-methyl-1-piperazinyl)-5-oxo-5H-thiazolo[3,2-a]quinoline-4-carboxylic acid hydrochloride] | 0.013 | 0.05 | 0.05 | 0.05 | 0.2 | 0.05 | 0.1 | 0.2 | 0.1 | 0.05 | 0.05 | 0.39 | 0.1 | 0.013 | 0.025 | 0.05 | 0.05 | 0.78 | 0.05 | 0.39 | MIC [19]: 0.05 µg/mL; MIC50 [20]: 0.39 µg/mL; MIC90 [20]: 6.25 µg/mL; MIC [20, 22]: 0.2 to 6.25 µg/mL; MIC50 [21]: 1.56 µg/mL; MIC [21]: 0.2 to 12.5 µg/mL; MIC90 [21]: 12.5 µg/mL
2 | CN1Cc2csc3c(C(=O)O)c(=O)c4cc(F)c(N5CCC(O)CC5)c1c4n23 [Compound (L), 9,1-(Methylimino)methano-7-fluoro-8-(4-hydroxypiperidino)-5-oxo-5H-thiazolo[3,2-a]quinoline-4-carboxylic acid] | ≤ 0.006 | ≤ 0.006 | 0.013 (≈ 0.0322 µM) | ≤ 0.006 | 0.1 (≈ 0.248 µM) | 0.025 (≈ 0.062 µM) | 0.025 (≈ 0.062 µM) | 0.2 (≈ 0.496 µM) | 0.025 (≈ 0.062 µM) | 0.013 (≈ 0.0322 µM) | 0.013 (≈ 0.0322 µM) | 0.1 (≈ 0.248 µM) | 0.05 (≈ 0.124 µM) | ≤ 0.006 | ≤ 0.006 | 0.013 (≈ 0.0322 µM) | ≤ 0.006 | 0.39 (≈ 0.967 µM) | 0.013 (≈ 0.0322 µM) | 0.2 (≈ 0.496 µM) | MIC [19]: ≤ 0.006 µg/mL; MIC [20, 22]: 0.05 to 1.56 µg/mL (≈ 0.124 to 3.87 µM); MIC50 [20, 23]: 0.05 µg/mL (≈ 0.124 µM); MIC90 [20, 24]: 1.56 µg/mL (≈ 3.87 µM); MIC50 [21]: 0.39 µg/mL (≈ 0.967 µM); MIC [21]: 0.05 to 6.25 µg/mL (≈ 0.124 to 15.5 µM); MIC90 [21]: 3.13 µg/mL (≈ 7.76 µM)
3 | CN1Cc2csc3c(C(=O)O)c(=O)c4cc(F)c(N5CCO[C@H](CO)C5)c1c4n23 [Compound (M), 9,1-(Methylimino)methano-7-fluoro-8-[ (2S)-2-hydroxymethylmorpholino]-5-oxo-5H-thiazolo[3,2-a]quinoline-4-carboxylic acid] | ≤ 0.006 | ≤ 0.006 | 0.025 (≈ 0.0596 µM) | ≤ 0.006 | 0.1 (≈ 0.238 µM) | 0.025 (≈ 0.0596 µM) | 0.05 (≈ 0.119 µM) | 0.2 (≈ 0.477 µM) | 0.05 (≈ 0.119 µM) | 0.05 (≈ 0.119 µM) | 0.025 (≈ 0.0596 µM) | 0.2 (≈ 0.477 µM) | 0.05 (≈ 0.119 µM) | ≤ 0.006 | ≤ 0.006 | 0.025 (≈ 0.0596 µM) | 0.013 (≈ 0.031 µM) | 0.39 (≈ 0.93 µM) | 0.013 (≈ 0.031 µM) | 0.39 (≈ 0.93 µM) | MIC [19]: 0.013 µg/mL (≈ 0.031 µM); MIC [20, 22]: 0.05 to 3.13 µg/mL (≈ 0.119 to 7.46 µM); MIC50 [20, 23]: 0.2 µg/mL (≈ 0.477 µM); MIC90 [20, 24]: 3.13 µg/mL (≈ 7.46 µM); MIC50 [21]: 1.56 µg/mL (≈ 3.72 µM); MIC [21]: 0.1 to 25 µg/mL (≈ 0.238 to 59.6 µM); MIC90 [21]: 3.13 µg/mL (≈ 7.46 µM)
